Reference: patent US7045532B2 (Millennium Pharmaceuticals, Inc., priority 1999, dated 2006)
pKi: −log10 of the molar value. Read-outs that look alike come from different tables or passages of the source.

Columns and labels:
[1] = Effect on appetite: food consumption in ICR mice; details: 100 mg/kg oral
ACE-2 [2] = biological target: ACE-2 (Rattus norvegicus, UniProt Q5EGZ1); experiment: ACE-2 Competitive Substrate Assay, rat ACE-2; format: biochemical; details: Ki class; compounds tested in 5% DMSO, 12 compound concentrations
Carboxypeptidase A = biological target: T1, Carboxypeptidase A (Bos taurus, UniProt P00730); experiment: Carboxypeptidase A activity assay; format: biochemical; details: Ki class; compounds tested in 5% DMSO, 12 compound concentrations
T1 sequence (P00730 111-419): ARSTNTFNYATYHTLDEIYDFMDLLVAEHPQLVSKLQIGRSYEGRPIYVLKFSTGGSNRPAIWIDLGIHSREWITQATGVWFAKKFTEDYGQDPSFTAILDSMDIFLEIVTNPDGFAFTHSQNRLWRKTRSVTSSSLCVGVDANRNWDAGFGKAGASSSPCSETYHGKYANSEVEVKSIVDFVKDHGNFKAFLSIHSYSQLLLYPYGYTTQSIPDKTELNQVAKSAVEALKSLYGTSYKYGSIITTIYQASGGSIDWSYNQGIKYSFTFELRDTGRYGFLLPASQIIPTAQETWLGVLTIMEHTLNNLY
Summary of the method: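 Ki obtained by correcting apparent Ki for substrate, Ki=Kiapp/(1+[S]/Km), from 12-concentration series. Enzyme activity read by absorbance at 328 nm with 5% DMSO present, EDTA stop.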

ACE-2 [3] = biological target: T2, ACE-2 (Homo sapiens, UniProt Q9BYF1); experiment: ACE-2 Competitive Substrate Assay (ACS Assay); format: biochemical
T2 construct: a stop codon inserted after the serine immediately preceding the transmembrane domain; made in house; host or cells: CHO K1 cells (transient transfection, purified from conditioned medium)

[4] = 34-day oral dosing in BBZDR rats (obesity and Type II diabetes model): body weight and metabolic parameters; format: in vivo; details: for Adipose Mass / Adipose Mass, percent of placebo response / Core Temperature / Core Temperature, percent of placebo response / Food Consumption / Food Consumption, percent of placebo response / Incidence of Glycosuria (Days) / Incidence of Glycosuria (Days), incidence rate / Psoas Mass / Psoas Mass, percent of placebo response / Water Consumption / Water Consumption, percent of placebo response / Incidence of Diabetes: 34 days; for Incidence of Diabetes: animals
Source text: The effects of Compound HE on body weight and metabolism were studied further in the BBZDR rat, a genetic model of obesity and Type II diabetes (Biomedical Research Models, Inc, Worcester, Mass.). BBZDR rats are a cross between the BBDR/W or strain and the fa/fa rat. In BBZDR rats, diabetes occurs in 98% of obese males at an average age of onset of 68±2 days. […] The pancreatic islets of the young obese diabetic males are profoundly enlarged with β cell hyperplasia and mild fibrosis. Studies of pancreatic sections immunostained for insulin and the GLUT-2 glucose transporter reveal focal reduction in β cell insulin content and a generalized reduction in GLUT-2 staining of β cell surface membranes. Lymphocytic insulitis is not detected in either lean or obese rats. In the absence of lymphopenia and autoimmunity, the lean BBZDR rats never become diabetic, and their pancreatic islets are normal in all respects.
Compound HE was administered to male BBZDR rats (48–60 days of age) via oral gavage for a period of 34 days. There were three treatment groups, each with 6 rats/group: a) placebo (1% carboxy methyl cellulose [CMC]), b) Compound HE at 100 mg/kg/day in 1% CMC, and c) Compound HE at 300 mg/kg/day in 1% CMC. The rats were gavaged twice daily for the entire period of the study. Body weight, food intake, fluid intake, and core body temperature were monitored on a daily basis. In addition, the rats were observed twice daily for any gross behavioral/phenotypic changes. Early in the study, two animals in the 300 mg/kg/day-dose group died from trauma secondary to oral gavage (confirmed during necropsy) and were excluded from all analyses.
On Day 21, after an overnight fast, whole blood, serum and plasma samples were collected from anesthetized animals. Prior to the termination of the study, tissue and plasma samples were collected from overnight-fasted animals for histological and biochemical analyses.

[5] = Pharmacokinetic profile in BBZDR rats (plasma samples); format: in vivo, rat (BBZDR); details: 100 and 300 mg/kg/day oral gavage, 0-24 hours after dosing
Description: To determine the pharmacokinetic profile of Compound HE, plasma samples were taken at 0, 0.5, 1, 2, 4, 8, 12, and 24 hours after dosing in both Compound HE dose groups.

T2 sequence (Q9BYF1 18-740 limits assumed): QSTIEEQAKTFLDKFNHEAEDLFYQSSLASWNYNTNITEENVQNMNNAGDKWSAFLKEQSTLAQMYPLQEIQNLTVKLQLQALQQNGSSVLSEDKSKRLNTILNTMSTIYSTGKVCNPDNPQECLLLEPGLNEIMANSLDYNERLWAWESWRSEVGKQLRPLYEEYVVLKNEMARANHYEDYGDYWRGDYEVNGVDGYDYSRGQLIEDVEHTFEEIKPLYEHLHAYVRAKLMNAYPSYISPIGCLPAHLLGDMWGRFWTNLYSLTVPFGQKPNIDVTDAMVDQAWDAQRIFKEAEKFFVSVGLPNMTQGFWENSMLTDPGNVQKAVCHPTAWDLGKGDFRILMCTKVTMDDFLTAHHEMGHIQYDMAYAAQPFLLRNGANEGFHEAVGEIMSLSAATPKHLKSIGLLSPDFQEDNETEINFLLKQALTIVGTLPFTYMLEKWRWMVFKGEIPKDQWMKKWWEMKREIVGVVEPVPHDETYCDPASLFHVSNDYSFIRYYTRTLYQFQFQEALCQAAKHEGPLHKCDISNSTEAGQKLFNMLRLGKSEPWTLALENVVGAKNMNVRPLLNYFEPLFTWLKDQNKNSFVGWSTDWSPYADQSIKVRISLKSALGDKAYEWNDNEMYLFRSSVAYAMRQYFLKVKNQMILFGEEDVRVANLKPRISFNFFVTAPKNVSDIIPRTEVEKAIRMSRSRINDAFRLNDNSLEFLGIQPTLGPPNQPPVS
ACE-2 (Rattus norvegicus, UniProt Q5EGZ1), sequence (Q5EGZ1 18-805): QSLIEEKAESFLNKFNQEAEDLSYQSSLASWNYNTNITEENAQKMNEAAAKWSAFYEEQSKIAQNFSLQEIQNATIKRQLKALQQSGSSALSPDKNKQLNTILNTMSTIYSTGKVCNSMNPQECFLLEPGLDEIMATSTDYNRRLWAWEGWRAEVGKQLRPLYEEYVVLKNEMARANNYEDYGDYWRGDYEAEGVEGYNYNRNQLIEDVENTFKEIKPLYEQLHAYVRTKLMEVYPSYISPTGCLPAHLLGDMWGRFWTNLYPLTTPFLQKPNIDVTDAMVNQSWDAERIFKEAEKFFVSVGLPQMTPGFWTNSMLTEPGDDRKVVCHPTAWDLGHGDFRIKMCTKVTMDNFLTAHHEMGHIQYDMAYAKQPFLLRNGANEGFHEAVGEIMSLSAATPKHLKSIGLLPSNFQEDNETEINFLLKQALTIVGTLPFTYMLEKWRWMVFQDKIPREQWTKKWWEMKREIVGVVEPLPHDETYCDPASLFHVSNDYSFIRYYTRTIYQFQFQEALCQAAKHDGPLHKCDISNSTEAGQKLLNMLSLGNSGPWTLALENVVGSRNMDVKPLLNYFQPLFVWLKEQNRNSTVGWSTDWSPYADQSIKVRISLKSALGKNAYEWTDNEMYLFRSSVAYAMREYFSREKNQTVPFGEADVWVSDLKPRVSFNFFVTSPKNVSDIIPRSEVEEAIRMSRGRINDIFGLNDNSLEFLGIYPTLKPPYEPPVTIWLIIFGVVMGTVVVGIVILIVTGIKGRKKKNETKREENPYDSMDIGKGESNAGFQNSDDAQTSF

CC(C)CC(N[C@@H](Cc1cncn1Cc1cc(Cl)cc(Cl)c1)C(=O)O)C(=O)O (single isomer, unassigned) [HE, 2-[1-Carboxy-2-[3-(3,5-dichloro-benzyl)-3H-imidazol-4-yl]-ethylamino)4-methyl-pentanoic acid]
reduction of food intake compared to vehicle ([1]; 1 hr after administration): about 40%
reduction of food intake compared to vehicle ([1]; 3 hr after administration): about 18%
pKi (ACE-2 [2]): > 7.00
pKi (Carboxypeptidase A): 4.30 to 5.00
pKi (ACE-2 [3]; Ki class, compounds tested in 5% DMSO, 12 compound concentrations, Ki=Kiapp/(1+[S]/Km), read-out: Human ACE-2 Activity): > 7.00
pKi (ACE-2 [3]; Table 3, very good ACE-2 inhibiting compounds, species not given, read-out: ACE-2 Activity, Ki): > 7.30
fluid intake, less than placebo ([4]; 100 mg-treated group): 5%
food intake, less than placebo ([4]; 100 mg-treated group): 5%
Fasted Glucose, Day 34, percent of placebo response ([4]; 100 mg/kg/day oral gavage): (100%)
Fasted Insulin, Day 34 ([4]; 100 mg/kg/day oral gavage): 8.4 ± 7.0 ng/mL
Fasted Insulin, Day 34, percent of placebo response ([4]; 100 mg/kg/day oral gavage): (62%)^a
Fasted Leptin, Day 34 ([4]; 100 mg/kg/day oral gavage): 99 ± 22 ng/mL
Fasted Leptin, Day 34, percent of placebo response ([4]; 100 mg/kg/day oral gavage): (102.7%)
Fasted Total Cholest., Day 34 ([4]; 100 mg/kg/day oral gavage): 117 ± 9 mg/dL
Fasted Total Cholest., Day 34, percent of placebo response ([4]; 100 mg/kg/day oral gavage): (88%)
Total Fasted Triglyc., Day 34 ([4]; 100 mg/kg/day oral gavage): 409 ± 6 mg/dL
Total Fasted Triglyc., Day 34, percent of placebo response ([4]; 100 mg/kg/day oral gavage): (82%)
Weight Gain thru Day 34 ([4]; 100 mg/kg/day oral gavage): 123 ± 3.4 g
Weight Gain thru Day 34, percent of placebo response ([4]; 100 mg/kg/day oral gavage): (83.9%)
Adipose Mass ([4]; 100 mg/kg/day oral gavage): 48.03 ± 1.86 g
Adipose Mass, percent of placebo response ([4]; 100 mg/kg/day oral gavage): (94%)
Core Temperature ([4]; 100 mg/kg/day oral gavage): 98.4 ± 0.13 F.
Core Temperature, percent of placebo response ([4]; 100 mg/kg/day oral gavage): (100%)
Food Consumption ([4]; 100 mg/kg/day oral gavage): 1283 ± 50.3 g
Food Consumption, percent of placebo response ([4]; 100 mg/kg/day oral gavage): (94.4%)
Incidence of Glycosuria (Days) ([4]; 100 mg/kg/day oral gavage): 31/198
Incidence of Glycosuria (Days), incidence rate ([4]; 100 mg/kg/day oral gavage): (15.7%)
Psoas Mass ([4]; 100 mg/kg/day oral gavage): 1.30 ± 0.09 g
Psoas Mass, percent of placebo response ([4]; 100 mg/kg/day oral gavage): (113%)
Water Consumption ([4]; 100 mg/kg/day oral gavage): 1388 ± 73.5 mL
Water Consumption, percent of placebo response ([4]; 100 mg/kg/day oral gavage): (94.6%)
Incidence of Diabetes ([4]; 100 mg/kg/day oral gavage): 2/6
fluid intake, less than placebo ([4]; 300 mg-treated group): 15%
food intake, less than placebo ([4]; 300 mg-treated group): 8%
Fasted Glucose, Day 34, percent of placebo response ([4]; 300 mg/kg/day oral gavage): (94%)
Fasted Insulin, Day 34 ([4]; 300 mg/kg/day oral gavage): 7.7 ± 4.1 ng/mL
Fasted Insulin, Day 34, percent of placebo response ([4]; 300 mg/kg/day oral gavage): (57%)^a
Fasted Leptin, Day 34 ([4]; 300 mg/kg/day oral gavage): 92 ± 5.3 ng/mL
Fasted Leptin, Day 34, percent of placebo response ([4]; 300 mg/kg/day oral gavage): (76%)
Fasted Total Cholest., Day 34 ([4]; 300 mg/kg/day oral gavage): 104 ± 5 mg/dL
Fasted Total Cholest., Day 34, percent of placebo response ([4]; 300 mg/kg/day oral gavage): (78%)
Total Fasted Triglyc., Day 34 ([4]; 300 mg/kg/day oral gavage): 414 ± 23 mg/dL
Total Fasted Triglyc., Day 34, percent of placebo response ([4]; 300 mg/kg/day oral gavage): (82%)
Weight Gain thru Day 34 ([4]; 300 mg/kg/day oral gavage): 125 ± 8.3 g
Weight Gain thru Day 34, percent of placebo response ([4]; 300 mg/kg/day oral gavage): (82.5%)
Adipose Mass ([4]; 300 mg/kg/day oral gavage): 48.43 ± 0.55 g
Adipose Mass, percent of placebo response ([4]; 300 mg/kg/day oral gavage): (94%)
Core Temperature ([4]; 300 mg/kg/day oral gavage): 98.4 ± 0.20 F.
Core Temperature, percent of placebo response ([4]; 300 mg/kg/day oral gavage): (100%)
Food Consumption ([4]; 300 mg/kg/day oral gavage): 1249 ± 26.8 g
Food Consumption, percent of placebo response ([4]; 300 mg/kg/day oral gavage): (91.9%)
Incidence of Glycosuria (Days) ([4]; 300 mg/kg/day oral gavage): 12/162
Incidence of Glycosuria (Days), incidence rate ([4]; 300 mg/kg/day oral gavage): (7.4%)
Psoas Mass ([4]; 300 mg/kg/day oral gavage): 1.21 ± 0.10 g
Psoas Mass, percent of placebo response ([4]; 300 mg/kg/day oral gavage): (105%)
Water Consumption ([4]; 300 mg/kg/day oral gavage): 1271 ± 101.7 mL
Water Consumption, percent of placebo response ([4]; 300 mg/kg/day oral gavage): (86.7%)
Incidence of Diabetes ([4]; 300 mg/kg/day oral gavage): 1/4
gross or histomorphological adverse effects ([4]; 34 consecutive days of oral dosing): No gross or histomorphological adverse effects
gross abdominal adipose and psoas muscle mass and core body temperature, change between groups ([4]; all three groups): no changes
plasma levels of insulin, total cholesterol and triglycerides compared to placebo ([4]; both dose groups): lower
body weight gain over the 34 days, less than placebo ([4]; both dose groups (100 and 300 mg/kg/day)): approximately 18%
statistical significance of the changes versus placebo ([4]; oral administration for 34 days): not statistically significant
systemic exposure (plasma levels) [5]: relatively low systemic levels
